Measured values: ChEMBL document CHEMBL1141732, “Croton ruizianus: platelet proaggregating activity of two new pregnane glycosides” (J Nat Prod, 1998)

Tests used:
[1] = Cytotoxicity against human washed-platelet assessed as LDH release after 5 mins by sonication method; assay type: cell-based
[2] = tested on: Platelet; test: Induction of human washed-platelet aggregation at 20 ug/test tube after 4 mins by light transmission aggregometer; assay type: functional
[3] = tested on: Platelet; test: Induction of human washed-platelet aggregation at 232 ug/test tube after 1 min by light transmission aggregometer; assay type: functional
[4] = tested on: Platelet; test: Induction of human washed-platelet aggregation at 232 ug/test tube after 4 mins by light transmission aggregometer; assay type: functional
[5] = tested on: Platelet; test: Induction of human washed-platelet aggregation at 20 ug/test tube after 1 min by light transmission aggregometer; assay type: functional
[6] = tested on: Platelet; test: Induction of human washed-platelet aggregation at 273 ug/test tube after 4 mins by light transmission aggregometer; assay type: functional
[7] = tested on: Platelet; test: Induction of human washed-platelet aggregation at 273 ug/test tube after 1 min by light transmission aggregometer; assay type: functional
[8] = tested on: Platelet; test: Induction of human washed-platelet aggregation at 82 ug/test tube after 1 min by light transmission aggregometer; assay type: functional
[9] = tested on: Platelet; test: Induction of human washed-platelet aggregation at 82 ug/test tube after 4 mins by light transmission aggregometer; assay type: functional
[10] = tested on: Platelet; test: Induction of human washed-platelet aggregation at 85 ug/test tube after 4 mins by light transmission aggregometer; assay type: functional
[11] = tested on: Platelet; test: Induction of human washed-platelet aggregation at 85 ug/test tube after 1 min by light transmission aggregometer; assay type: functional

Question: Which Activity [1] does the source give for `CO[C@@H]1[C@@H](O)[C@H](O[C@H]2CC[C@@]3(C)[C@@H](CC[C@@H]4[C@@H]3CC[C@]3(C)[C@@H](C(C)=O)[C@H](O)[C@@H](O)[C@]43O)C2)O[C@H](C)[C@H]1O[C@@H]1C[C@@H](O)[C@@H](O[C@@H]2C[C@H](OC)[C@@H](O[C@H]3C[C@@H](OC)[C@H](O)[C@@H](C)O3)[C@H](C)O2)[C@H](C)O1` here?
Answer: <= 3.8%

Question: What about the Activity [2] of the same compound?
Answer: 12.5%

Question: What about the Activity [3] of the same compound?
Answer: 18.3%

Question: And the Activity [4]?
Answer: 54.5%

Question: And the Activity [5]?
Answer: 12.5%

Question: With `CO[C@@H]1[C@@H](O)[C@H](O[C@H]2CC[C@@]3(C)[C@@H](CC[C@@H]4[C@@H]3CC[C@]3(C)[C@@H](C(C)=O)[C@H](O)[C@@H](O)[C@]43O)C2)O[C@H](C)[C@H]1O[C@@H]1C[C@@H](O)[C@@H](O[C@@H]2C[C@H](OC)[C@@H](O[C@H]3C[C@@H](OC)[C@H](O[C@@H]4O[C@H](CO)[C@@H](O)[C@H](O)[C@H]4O)[C@@H](C)O3)[C@H](C)O2)[C@H](C)O1` as the compound, how does the Activity [1] read?
Answer: <= 3.8%

Question: And the Activity [2]?
Answer: 9.4%

Question: What about the Activity [6] of the same compound?
Answer: 42.3%

Question: What about the Activity [5] of the same compound?
Answer: 5.3%

Question: And the Activity [7]?
Answer: 14.1%

Question: With `COC1=C[C@]23CCN(C)[C@H](Cc4cc(OC)c(O)cc42)C3=CC1=O` [FLAVINANTINE] as the compound, how does the Activity [1] read?
Answer: <= 3.8%

Question: And the Activity [2]?
Answer: 3.5%

Question: And the Activity [8]?
Answer: 6.3%

Question: What about the Activity [9] of the same compound?
Answer: 17.5%

Question: And the Activity [5]?
Answer: 2.1%

Question: What does the source list for `COC1=C[C@]23CCN(C)[C@H](Cc4cc(OC)c(OC)cc42)C3=CC1=O` [O-METHYLFLAVINANTINE]?
Answer: Activity [1]: <= 3.8%; Activity [2]: 0%; Activity [5]: 0%; Activity [10]: 8.8%; Activity [11]: 3.1%
